Read-outs that look alike come from different tables or passages of the source.
How the values were obtained:
male gypsy moth antenna = test: Coupled gas chromatographic-electroantennographic detection (GC-EAD); set-up: species or system Lymantria dispar; details: EAD peak size and shape (sharp/broad)
From the text: In GC-EAD assays, the analyte is processed by gas chromatography (GC). The column effluent is split, such that molecules of each chromatographic peak arrive simultaneously at the flame ionization detector of the GC and at an anectomized but otherwise intact insect antenna as the biological detector. This procedure detects specific compounds in the analyte that elicit an electrical potential from the antenna.
For GC-EAD recordings, an antenna was carefully dislodged from a male moth's head, and the antennal base placed into the opening of a glass capillary electrode (0.58 mm ID×65 mm length) (A-M Systems, Inc., Carlsborg, Wash., USA) filled with saline solution. The tip of the antenna was removed by spring microscissors (Fine Science Tools Inc., North Vancouver, British Columbia, Canada) and then placed into the opening of the recording electrode mounted on a portable micromanipulator and positioned in front of a constant stream of warm air (Praxair Canada Inc., Mississauga, Ontario, Canada) which delivered the GC column eluent. […] Identical retention times of compounds detected by the flame ionization detector of the GC and by the insect antenna allowed assignment of antennal responses to specific compounds in the eluent.

[1] = system: male gypsy moth antenna response to pheromone (+)-1; test: EAG short-term (STI) and long-term (LTI) inhibition of pheromone signaling (Example 5); set-up: species or system Lymantria dispar; details: for inhibition at 0.001 mg / inhibition at 0.01 mg / inhibition at 0.1 mg / inhibition at 100 µg, 0.1 mg: Lymantria dispar; for inhibition at 0.001 mg / inhibition at 0.01 mg / inhibition at 0.1 mg / Activity (%): short-term inhibition (STI): negative = enhancement; for inhibition at 0.001 mg / inhibition at 0.01 mg / inhibition at 0.1 mg: read-out: Activity (%): short-term inhibition (STI); for inhibition at 100 µg, 0.1 mg: read-out: Activity (%): long-term inhibition (LTI)
Protocol: The puffs are numbered i-vi and were: i=air, ii=pure pheromone (+)-disparlure, (+)-1, (100 ng), iii-v=disparlure mixed with the test compound, the latter at three different doses, vi=pure (+)-1. Depolarizations from the resting potential are labeled d; hyperpolarizations seen during the recovery phase after a puff are labeled r. Subscripts refer to the puff number. FIG. 5A. Typical trace for compound 3c{2,3}. FIG. 5B. Typical trace for compound 3a{4,4}.
For other compounds, EAG traces were recorded as follows: a fully dislodged antenna from a male gypsy moth was mounted on the end of a reference electrode (a glass capillary with a silver wire, filled with buffered saline: 5 mM NaH2PO4, 10 mM Na2SO4, 4.5 mM KHCO3, 18 mM MgCl2, 4 mM CaCl2, 6 mM KCl, the pH is adjusted to 6.8 using 5 mM Na2HPO4). The tip of the antenna was severed with microscissors and placed in the recording electrode, which was mounted on a micromanipulator. A constant stream of air, that had been purified (charcoal filter), was blown over the antenna at a rate of 300 mL/min. Test samples were delivered through a stimulus delivery tube with a side opening 2 cm from the distal opening. The proximal end of the delivery tube was connected to a controlled stimulus delivery apparatus (Stimulus controller CS-05 Syntech Research and Equipment, NL 1200BM, Hilversum, The Netherlands). The distal end of the delivery tube pointed at the antenna (1 cm from the antenna). The side opening was connected to a cartridge fashioned from a Pasteur pipette which contained a small filter paper (Whatman No. 1) with the stimulus. These pipette cartridges could be prepared a few days in advance and stored at −80° C. wrapped in Al foil and in sealable plastic bags. Sample cartridges were mounted once they had reached room temperature. The stimulus delivery apparatus delivered a second stream of air (a puff) through the Pasteur pipette at a velocity of 600 mL/min, at a specified point in time, for 0.3 s. Receptor potentials of the antennae in response to test stimuli were recorded with a Syntech IDAC probe, amplifier and interfaced board, and were analyzed with EAG Syntech Software Version 2.4 (1996). See FIG. 4 for a representative EAG trace. The EAG traces were evaluated as follows (see FIG. 5).
The net depolarizations, d(net) (in mV), of puffs ii-vi,d(sample), (corrected for the depolarization with clean air, d(air)) d(net)=d(sample)−d(air) (Eq. 1)
The percentage short-term inhibition for each compound (STI(compound)) of puffs iii-v, relative to the first pure pheromone puff (ii) STI(compound)=100×(d(net)(ii)−d(net)(compound))/d(net)(ii) (Eq. 2)
c) the percentage long-term inhibition for each compound (LTI(compound)) of the pure pheromone puff that followed the last mixed puff (vi) relative to the first pure pheromone puff (ii) LTI(compound)=100×(d(net)(ii)−d(net)(vi))/d(net)(ii) (Eq. 3)
The compounds we tested gave weak or no olfactory responses by themselves in electroantennogram (EAG) experiments. The EAG trace reflects the change in the potential across the antenna when an air puff with an odorant is passed over the antenna. To understand the agonistic or antagonistic effect of the compounds on pheromone responses by male moth antennae, four types of EAG experiment were conducted. First, the response of the antenna elicited by a stimulus of pure (+)-1 was compared to the responses elicited by blends of (+)-1 with the test compound (FIG. 5). […] This effect was termed short-term inhibition (STI). […] Second, the time decay and dose responses for LTI activities were studied. Third, the strongest inhibitors were tested for their ability to cause LTI by themselves.
This experiment explored the agonistic or antagonistic activity of the synthetic aromatic compounds (Scheme 1 and eugenol and alkyl eugenols) with the gypsy moth pheromone (+)-1. […]

[2] = mixed plume (+)-1 100 ng + compound 1 μg, mean ± S.E.
[3] = mixed plume (+)-1 100 ng + compound 10 μg, mean ± S.E.
[4] = mixed plume (+)-1 100 ng + compound 100 μg (puff v), mean ± S.E.
[5] = pure (+)-1 100 ng plume following mixed plume with 100 μg compound, mean ± S.E.

SMILES | GC-EAD activity (male gypsy moth antenna) | inhibition at 0.001 mg [1, 2] [%] | inhibition at 0.01 mg [1, 3] [%] | inhibition at 0.1 mg [1, 4] [%] | inhibition at 100 µg, 0.1 mg [1, 5] [%] | long-term inhibition (LTI) activity (in words) [1] | Activity (%): short-term inhibition (STI) [1, 2] | Activity (%): short-term inhibition (STI) [1, 3] | Activity (%): short-term inhibition (STI) [1, 4] | Activity (%): long-term inhibition (LTI) [1, 5] | inhibition at 100 µg, 0.1 mg [1] [%]
C=CCOc1ccc(O)cc1 [2c{6}, 4-Allyloxy phenol] | None | 19 ± 10 | 42 ± 8 | 46 ± 10 | 24 ± 8 |  |  |  |  |  | 
CC(C)CCOc1ccccc1OCCC(C)C [3a{5,5}, 1,2-Di-(3-methyl-butyloxy) benzene] | None | -77 ± 58 | -55 ± 67 | -105 ± 81 | 0 |  |  |  |  |  | 
C=CCOc1ccccc1OCC=C [3a{6,6}, 1,2-Diallyloxy benzene] | None | 32 ± 16 | 16 ± 24 | -27 ± 48 | 17 ± 28 |  |  |  |  |  | 
COc1cccc(OC)c1 [3b{1,1}, 1,3-Dimethoxy benzene] | Trace | 25 ± 18 | 9 ± 40 | 44 ± 36 | 1 ± 8 |  |  |  |  |  | 
C=CCOc1cccc(OC)c1 [3b{1,6}, 1-allyloxy-3-methoxybenzene] | None | -67 ± 61 | -107 ± 88 | -95 ± 106 | 14 ± 13 |  |  |  |  |  | 
CCOc1cccc(OCC)c1 [3b{2,2}, 1,3-Diethoxy benzene] | Trace | -100 ± 51 | -12 ± 70 | 63 ± 65 | 39 ± 6 |  |  |  |  |  | 
CCCOc1cccc(OCCC)c1 [3b{3,3}, 1,3-Dipropoxy benzene] | None | 36 ± 11 | 1 ± 26 | -2 ± 34 | 45 ± 12 |  |  |  |  |  | 
C=CCOc1cccc(OCCC)c1 [3b{3,6}, 1-allyloxy-3-propoxybenzene] | None | -85 ± 30 | -85 ± 80 | -96 ± 98 | 48 ± 7 | most active long-term inhibitor |  |  |  |  | 
CCCCOc1cccc(OCCCC)c1 [3b{4,4}, 1,3-Dibutoxy benzene] | None | 4 ± 45 | -72 ± 91 | -42 ± 93 | 8 ± 9 |  |  |  |  |  | 
C=CCOc1cccc(OCCCC)c1 [3b{4,6}, 1-allyloxy-3-n-butoxybenzene] | None | -66 ± 43 | -101 ± 76 | 8 ± 46 | 27 ± 12 |  |  |  |  |  | 
CC(C)CCOc1cccc(OCCC(C)C)c1 [3b{5,5}, 1,3-Di-(3-methyl-butyloxy) benzene] | None | 41 ± 13 | -38 ± 41 | -51 ± 51 | 9 ± 9 |  |  |  |  |  | 
C=CCOc1cccc(OCCC(C)C)c1 [3b{5,6}, 1-allyloxy-3-isopentoxybenzene] | None | -69 ± 34 | -85 ± 65 | -99 ± 88 | 15 ± 8 |  |  |  |  |  | 
C=CCOc1cccc(OCC=C)c1 [3b{6,6}, 1,3-Diallyloxy benzene] | None | 11 ± 18 | 10 ± 22 | -34 ± 41 | 33 ± 12 |  |  |  |  |  | 
C=CCOc1ccc(OCCC)cc1 [3c{3,6}, 1-allyloxy-4-propoxybenzene] | + broad | -57 ± 46 | -114 ± 51 | -168 ± 76 | 39 ± 15 |  |  |  |  |  | 
C=CCOc1ccc(OCC=C)cc1 [3c{6,6}, 1,4-Diallyloxy benzene] | Trace | -6 ± 10 | 45 ± 6 | 41 ± 8 | 4 ± 6 |  |  |  |  |  | 
C=CCc1ccc(OCCCC)c(OC)c1 [Bu eugenol] | None |  |  |  |  |  | 39 ± 17 (6) % | −68 ± 29 (6) % | −116 ± 24 (6) % | 7 ± 4 (6) % | 
C=CCc1ccc(OCC)c(OC)c1 [Et eugenol] | None | 3 ± 27 | 19 ± 18 | -121 ± 15 | 20 ± 3 |  |  |  |  |  | 
C=CCc1ccc(O)c(OC)c1 [eugenol, 2-methoxy-4-(2-propenyl) phenol, reference compound] | None |  |  |  |  |  |  |  |  |  | 14 ± 10
C=CCc1ccc(OCCC(C)C)c(OC)c1 [iPent eugenol] | None |  |  |  |  |  | 11 ± 33 (6) % | −98 ± 26 (6) % | −106 ± 24 (6) % | 5 ± 8 (6) % | 

— US9497963B2, “Methods and compositions for control of gypsy moth, Lymantria dispar” (Simon Fraser University, priority 2008, dated 2016)
